Patent US12268691B2 (Sinopia Biosciences, Inc., priority 2016, dated 2025)

Experiments:
[1] = tested on: 433 gene transcriptomic signature; conditions: 10 uM, MCF7 cells; FIG. 3
CYP1A2 = biological target: T1, CYP1A2 (Homo sapiens, UniProt P05177); conditions: cited from earlier work
T1 sequence (P05177 1-516): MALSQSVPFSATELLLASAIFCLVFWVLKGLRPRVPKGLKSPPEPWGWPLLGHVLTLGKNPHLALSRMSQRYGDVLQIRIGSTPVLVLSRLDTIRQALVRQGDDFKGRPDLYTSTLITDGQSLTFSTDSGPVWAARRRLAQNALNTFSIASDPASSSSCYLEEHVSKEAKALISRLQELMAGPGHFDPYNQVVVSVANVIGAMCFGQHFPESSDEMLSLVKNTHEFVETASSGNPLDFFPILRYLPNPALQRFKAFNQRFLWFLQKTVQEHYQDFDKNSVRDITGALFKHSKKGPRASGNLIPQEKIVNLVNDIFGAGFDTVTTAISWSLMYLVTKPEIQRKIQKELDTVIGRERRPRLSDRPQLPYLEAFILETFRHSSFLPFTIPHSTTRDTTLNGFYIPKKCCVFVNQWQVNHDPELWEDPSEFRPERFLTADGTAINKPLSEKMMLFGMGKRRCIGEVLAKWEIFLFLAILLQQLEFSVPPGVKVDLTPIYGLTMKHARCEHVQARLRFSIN

## O=C(CCCN1CCC(O)(c2ccc(Cl)cc2)CC1)c1ccc(F)cc1 [haloperidol]
[1]
  extrapyramidal syndrome propensity score, compound alone: much higher propensity than risperidone
CYP1A2
  interaction with CYP1A2: has not been shown to interact with haloperidol
